The assay in a line: Applicant's clinical observation of paeonol and apocynin alone versus together. The assay is classed as in vivo. Particulars: used on their own. The text has this: The applicant has noted that the effect of the combination of paeonol and apocynin together is rather better than would have been expected from studies using either of these alone.

With `COc1cc(C(C)=O)ccc1O` [apocynin, 4-hydroxy-3-methoxyacetophenone], the “anti-inflammatory and/or analgesic activity” value was “did not show anti-inflammatory and/or analgesic activity that could be clinically observed”.

As to `COc1ccc(C(C)=O)c(O)c1` [paeonol, 2-hydroxy-4-methoxy-acetophenone], the “anti-inflammatory and/or analgesic activity” value is on record as “did not show anti-inflammatory and/or analgesic activity that could be clinically observed”.

(Values after patent US8841348B2, “Anti-inflammatory formulation” (AKL Inflammatory Limited, priority 2005, dated 2014).)
